Test results from ChEMBL document CHEMBL2016449, “Discovery of a novel chemotype of potent human ENaC blockers using a bioisostere approach. Part 2: α-Branched quaternary amines” (Bioorg Med Chem Lett, 2012).

What was measured:
[1] = Blockade of human ENaC expressed in HBE cells by short-circuit current assay; type: cell-based
[2] = Blockade of guinea pig ENaC expressed in FRT cells by short-circuit current assay; type: cell-based; settings: Cavia porcellus
Cavia porcellus [3] = experiment: Blockade of ENaC in intratracheally dosed Dunkin Hartley guinea pig tracheal potential difference model after 1 hr; type: functional; settings: inhaled or nasal
BE = experiment: Ratio of amiloride IC50 to compound IC50 for human ENaC expressed in HBE cells; type: cell-based
Cavia porcellus [4] = experiment: Ratio of amiloride ED50 to compound ED50 for blockade of ENaC in intratracheally dosed Dunkin Hartley guinea pig; type: functional

| SMILES | IC50 [1] [nM] | further results |
| --- | --- | --- |
| C[C@H](CNC(=O)c1nc(Cl)c(N)nc1N)[N+](C)(C)C | > 10000 |  |
| CC[C@@H](CNC(=O)c1nc(Cl)c(N)nc1N)[N+](C)(C)C | 750 |  |
| CCC[C@@H](CNC(=O)c1nc(Cl)c(N)nc1N)[N+](C)(C)C.[I-] | 30 | IC50 [2]: 30 nM; ED50 (Cavia porcellus [3]): 1 µg/kg; Ratio IC50 (BE): 10; Ratio ED50 (Cavia porcellus [4]): 16 |
| N=C(N)NC(=O)c1nc(Cl)c(N)nc1N [AMILORIDE] | 220 | IC50 [2]: 540 nM; ED50 (Cavia porcellus [3]): 16 µg/kg |
| C[C@@H](CNC(=O)c1nc(Cl)c(N)nc1N)[N+](C)(C)C | 8090 |  |
| N/C(=N\C(=O)c1nc(Cl)c(N)nc1N)NCCCCc1ccc(OCC(O)CO)cc1 (configuration not stated) [552-02 FREE BASE] | 2 | IC50 [2]: 4 nM; ED50 (Cavia porcellus [3]): 0.2 µg/kg |
| CC(C)[C@@H](CNC(=O)c1nc(Cl)c(N)nc1N)[N+](C)(C)C | 2390 |  |
| CCC[C@@H](CNC(=O)c1nc(Cl)c(N)nc1N)[N+](C)(C)CCCc1ccc(OC)cc1 | 4 |  |
| CCC[C@H](CNC(=O)c1nc(Cl)c(N)nc1N)[N+](C)(C)C | 290 |  |
| CCCC[C@@H](CNC(=O)c1nc(Cl)c(N)nc1N)[N+](C)(C)C | 59 |  |
| CC[C@H](CNC(=O)c1nc(Cl)c(N)nc1N)[N+](C)(C)C | 510 |  |
| CC(C)[C@H](CNC(=O)c1nc(Cl)c(N)nc1N)[N+](C)(C)C | 19500 |  |
| C[N+](C)(C)[C@H](CNC(=O)c1nc(Cl)c(N)nc1N)Cc1ccccc1 | 170 |  |
| CC(C)(CNC(=O)c1nc(Cl)c(N)nc1N)[N+](C)(C)C | > 30000 |  |
